# US9821000B2, “Compounds, compositions and corresponding uses for preventing and/or treating of dyslipidemia” (CENTRE NATIONAL DE LA RECHERCHE SCIENTIFIQUE (CNRS), priority 2013, dated 2017)
# Entries after “also recorded” stand apart in the source; their conditions may differ.
# Legend:
# UPR response = assay: UPR triggering test (4xUPRE-LacZ reporter, β-galactosidase activity) in hem1Δ yeast; type: cell-based, Saccharomyces cerevisiae; details: hem1Δ in liquid medium inducing SFA accumulation, 200 μM compound
# Description: A plasmidic construction carrying a fusion gene, corresponding to the encoding sequence of the gene LacZ placed under dependence of an artificial promoter containing four UPR elements (UPRE) was introduced into a hem1Δf yeast strain, as described in Pineau et al. (2009). During an induction of the UPR response, the Hac1p/XBP1p transcription is activated and gets fixed on the UPR elements of the fusion gene, leading to the transcription of the LacZ gene. With LacZ encoding β-galactosidase, the level of induction of UPR is measured to detect the corresponding enzyme activity. The hem1Δ yeast strain was cultivated in a liquid medium inducing the accumulation of SFA without other addition (Ø), or in the same medium supplemented with 200 μM of oleic acid, OAG or LPA as indicated. A.U.: arbitrary units.
# The hem1Δ strain transformed by the plasmid pPW344 [2 μ URA34×UPRE-LacZ (Patil et al., 2004)] is cultivated in liquid medium YPG^A, YPG or YPG+200 μM of compound to be tested in aerobic conditions, under stirring and at 28° C. for 7 h, starting from an initial cell concentration of 2·10^6 cells/mL. At the end of the culture, 10^8 cells are collected in order to quantify the beta-galactosidase (β-gal) activity resulting from the expression of the LacZ trans gene (in the case of a triggering of UPR). […]
# eIF2α = assay: Western blotting of eIF2α phosphorylation (UPR) in BRIN-BD11 cells; type: cell-based, rat; details: BRIN-BD11, palmitic acid 200 μM
# Description: The BRIN-BD11 pancreatic β-cells were cultivated in controlled conditions or in the presence of an exogenous source of saturated fatty acids (palmitic acid 200 μM), as described by Dhayal& Morgan (2011) in order to generate conditions of lipotoxicity with or without addition of OAG or LPA.
# FIG. 7B—The rates of phosphorylation of eIF2α were also analyzed under different conditions by Western blotting method, in the absence (Ø) or in the presence of OAG or LPA and normalized with quantities of total eIF2α. […] A.U.: arbitrary units.
# The cells BRIN-BD11 are seeded at a density of 0.5×10^5 cells/mL in T25 flasks for 24 h. As indicated here above, the complete medium is then replaced by an equivalent devoid of FCS but containing the lipid reagents of interest. […] In a second stage, the membranes are stripped with the buffer Re-Blot Plus-Strong (Millipore) and then probed a second time with total anti-eIF2α antibodies (CellSignalling (New EnglandBiolabs) diluted to 1/1000th. The analysis by densitometry of the relative abundance of the phosphorylated and non-phosphorylated forms of the protein eIF2α is done with the Fluor-S Multi-imager analysis system combined with the software program Quantify One (Biorad UK Ltd).
# hem1Δ yeasts = assay: Restoration of growth of lipo-intoxicated hem1Δ yeasts (drop test on agar); type: cell-based, Saccharomyces cerevisiae; details: SFA accumulation conditions; 5 μl drops on agar; after three days
# Description: FIG. 3B—The hem1Δ yeasts were cultivated in conditions of SFA accumulation as indicated. 5 μl drops of OAG, LPA and oleic acid in the concentrations indicated were then deposited on the surface of the agar medium. The restoration of growth of the hem1Δ yeasts is observed in the formation of colonies after three days.
# The strain carrying the hem1Δ strain is cultivated, under aerobic conditions, under stirring and at 28° C., in a YPG^A liquid medium (YPG (yeast extract 1% (m/v), peptone 1% (m/v) and glucose 2% (m/v)) supplemented with δ-aminolevulinic acid (ALA) at 80 μg/mL). Lipotoxicity by saturated fatty acids (SFA) is prompted by depletion of unsaturated fatty acids (UFA)—the synthesis of which is dependent on the presence of haem (prosthetic grouping of the enzyme Ole1p especially)—by transfer into YPG^+ medium (YPG supplemented with ergosterol at 80 μg/mL to compensate for the depletion in sterol obtained under these conditions). The lipotoxicity can be induced in a solid medium YPG^++agar 2% (m/v) in transferring 3500 cells (hem1Δ coming from a pre-culture in YPG^A)/cm^2 or *alternatively in a liquid medium in inoculating 2·10^6 cells/mL of YPG^+. Classically, the effects of lipotoxicity on SFA are analyzed 7 h after the transfer into YPG^+ medium. The capacity of a compound to counter the deleterious effects of lipotoxicity with SFA is for its part evaluated successively with the addition of this compound on (or in) the YPG^+ transfer medium after seeding with cells.
# 1) Screening of compounds: Following the induction of lipotoxicity with SFA (for hem1Δ cultivated in a solid medium), 5 μL drops of solutions of different compounds at 10 mM in dimethylsulfoxide (DMSO) or in ethanol (EtOH) are deposited on the surface of agar. The capacity of a compound to counter the lipo-induced stoppage of cell growth is estimated by the appearance of a halo of hem1Δ colonies at the position of the deposit of said compound after three days of culture at 28° C. (cf. Deguil et al., 2011).
SMILES,UPR response in lipo-intoxicated yeasts (β-galactosidase activity) (UPR response),UPR induction (rate of phosphorylation of eIF2α normalized to total eIF2α) (eIF2α),restoration of growth of lipo-intoxicated hem1Δ yeasts (formation of colonies) (hem1Δ yeasts)
"CCCCCCCC/C=C\CCCCCCCC(=O)OC[C@@H](O)COP(=O)(O)O [LPA, 1-oleoyl-sn-glycerol-3-phosphate]",reduce the UPR response,reducing the induction rate of UPR,restore the growth
"CCCCCCCC/C=C\CCCCCCCC(=O)OC[C@H](CO)OC(C)=O [OAG, 1-oleoyl-2-acetyl-sn-glycerol]",reduce the UPR response,reducing the induction rate of UPR; also recorded: reduces the UPR,restore the growth
